PubChem BioAssay AID248 (DTP/NCI, 2004)
Toxic doses and inconclusive results are not listed. No stated cut-off is given here; in the data, active means T/C of 150% or more; inactive means T/C below 125%.

Tested on: L1210 leukemia ip in BDF1 mice, survival T/C
Assay: NCI In Vivo Anticancer Drug Screen. Data for tumor model L1210 Leukemia (intraperitoneal) in B6D2F1 (BDF1) mice
Details: endpoint: mean survival time, higher = longer survival
Method in brief: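 Value reflects the ratio of survival in compound-treated mice to survival in vehicle-treated controls, with both groups carrying the same transplanted tumor.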

[1] = dose: 100.0 mg/kg/injection, schedule: Q04DX003 (ip), vehicle: saline
[2] = dose: 200.0 mg/kg/injection, schedule: Q04DX003 (ip), vehicle: saline
[3] = dose: 400.0 mg/kg/injection, schedule: Q04DX003 (ip), vehicle: saline
[4] = dose: 50.0 mg/kg/injection, schedule: Q01DX009 (ip), vehicle: saline with Tween-80
[5] = dose: 100.0 mg/kg/injection, schedule: Q01DX001 (ip), vehicle: acetone
[6] = dose: 200.0 mg/kg/injection, schedule: Q01DX001 (ip), vehicle: acetone
[7] = dose: 100.0 mg/kg/injection, schedule: Q01DX009 (ip), vehicle: saline with Tween-80
[8] = dose: 200.0 mg/kg/injection, schedule: Q01DX009 (ip), vehicle: saline with Tween-80
[9] = dose: 100.0 mg/kg/injection, schedule: Q01DX001 (ip), vehicle: saline
[10] = dose: 100.0 mg/kg/injection, schedule: Q01DX009 (ip), vehicle: saline
[11] = dose: 200.0 mg/kg/injection, schedule: Q01DX009 (ip), vehicle: saline

Measured: T/C

N=C(N)c1ccncc1
inactive: [1] 104 % of control | [2] 104 % of control | [3] 107 % of control

Cc1cccc(Nc2cc(=O)[nH]c(=O)[nH]2)c1C
inactive: dose: 150.0 mg/kg/injection, schedule: Q01DX001 (ip), vehicle: saline with Tween-80 90 % of control | dose: 300.0 mg/kg/injection, schedule: Q01DX001 (ip), vehicle: saline with Tween-80 95 % of control

NC(=O)NOCc1ccc([N+](=O)[O-])cc1
inactive: [1] 98 % of control | [2] 101 % of control | [3] 115 % of control

CCCCCCCCCCOc1ccc(OCCCCCCCCC)cc1
inactive: dose: 100.0 mg/kg/injection, schedule: Q04DX003 (ip), vehicle: saline with Tween-80 94 % of control | dose: 200.0 mg/kg/injection, schedule: Q04DX003 (ip), vehicle: saline with Tween-80 100 % of control | dose: 400.0 mg/kg/injection, schedule: Q04DX003 (ip), vehicle: saline with Tween-80 87 % of control

c1ccc2c(c1)CCc1ccccc1C2NC1=NCCO1
inactive: dose: 12.5 mg/kg/injection, schedule: Q01DX009 (ip), vehicle: saline with Tween-80 94 % of control | dose: 12.5 mg/kg/injection, schedule: Q04DX003 (ip), vehicle: saline with Tween-80 97 % of control | dose: 25.0 mg/kg/injection, schedule: Q01DX009 (ip), vehicle: saline with Tween-80 89 % of control | dose: 25.0 mg/kg/injection, schedule: Q04DX003 (ip), vehicle: saline with Tween-80 100 % of control | [4] 93 % of control | dose: 50.0 mg/kg/injection, schedule: Q04DX003 (ip), vehicle: saline with Tween-80 93 % of control

O=C(N/N=C\c1ccc(-c2ccccc2)cc1)N/N=C/c1ccc(-c2ccccc2)cc1
inactive: dose: 100.0 mg/kg/injection, schedule: Q04DX003 (ip), vehicle: carboxymethylcellulose (CMC) 90 % of control | dose: 200.0 mg/kg/injection, schedule: Q04DX003 (ip), vehicle: carboxymethylcellulose (CMC) 87 % of control

CNc1cnc(Cl)nc1Cl
inactive: dose: 50.0 mg/kg/injection, schedule: Q01DX001 (ip), vehicle: acetone 98 % of control | [5] 93 % of control | [6] 97 % of control

CSC(N)=Nc1ccccc1
inactive: dose: 87.5 mg/kg/injection, schedule: Q01DX009 (ip), vehicle: saline 96 % of control | dose: 175.0 mg/kg/injection, schedule: Q01DX009 (ip), vehicle: saline 100 % of control

CC(C)=CCC/C(C)=C/C=C1C(=O)NC(=S)NC1=O
inactive: [4] 117 % of control | [7] 103 % of control | [8] 103 % of control

O=C1c2nc3ccccc3cc2CN1Cc1ccccc1
inactive: dose: 10.0 mg/kg/injection, schedule: Q04DX003 (ip), vehicle: alcohol 97 % of control | dose: 20.0 mg/kg/injection, schedule: Q04DX003 (ip), vehicle: alcohol 96 % of control | dose: 40.0 mg/kg/injection, schedule: Q04DX003 (ip), vehicle: alcohol 96 % of control | dose: 80.0 mg/kg/injection, schedule: Q04DX003 (ip), vehicle: alcohol 97 % of control | dose: 160.0 mg/kg/injection, schedule: Q04DX003 (ip), vehicle: alcohol 92 % of control

CCOC(=O)C(Nc1ccc(SC)cc1)c1ccccc1 (stereo not given)
inactive: [9] 110 % of control | dose: 200.0 mg/kg/injection, schedule: Q01DX001 (ip), vehicle: saline 98 % of control | dose: 400.0 mg/kg/injection, schedule: Q01DX001 (ip), vehicle: saline 98 % of control

COc1c(NC(=O)C(Br)C(Br)C(=O)O)cccc1[N+](=O)[O-] (stereo not given)
inactive: [7] 100 % of control | [8] 95 % of control | dose: 400.0 mg/kg/injection, schedule: Q01DX009 (ip), vehicle: saline with Tween-80 95 % of control

CS(=O)(=O)c1ccccc1C(=O)O
inactive: dose: 50.0 mg/kg/injection, schedule: Q01DX009 (ip), vehicle: saline 93 % of control | dose: 50.0 mg/kg/injection, schedule: Q04DX003 (ip), vehicle: acetone 105 % of control | [5] 97 % of control | [10] 98 % of control | dose: 100.0 mg/kg/injection, schedule: Q04DX003 (ip), vehicle: acetone 105 % of control | [6] 101 % of control | [11] 98 % of control | dose: 200.0 mg/kg/injection, schedule: Q04DX003 (ip), vehicle: acetone 103 % of control

CCOC(=O)c1cc(Br)cc(Br)c1N=NN(C)C
inactive: [4] 105 % of control | [7] 113 % of control | [8] 105 % of control

Cc1cc(N=Nc2ccccc2C)ccc1N
inactive: dose: 3.0 mg/kg/injection, schedule: Q01DX009 (ip), vehicle: DMSO 97 % of control | dose: 6.0 mg/kg/injection, schedule: Q01DX009 (ip), vehicle: DMSO 90 % of control | dose: 12.0 mg/kg/injection, schedule: Q01DX009 (ip), vehicle: DMSO 98 % of control | dose: 12.5 mg/kg/injection, schedule: Q01DX009 (ip), vehicle: DMSO 95 % of control | dose: 12.5 mg/kg/injection, schedule: Q04DX003 (ip), vehicle: DMSO 100 % of control | dose: 25.0 mg/kg/injection, schedule: Q04DX003 (ip), vehicle: DMSO 98 % of control | dose: 50.0 mg/kg/injection, schedule: Q04DX003 (ip), vehicle: DMSO 96 % of control

CCCCCCCCCCOC(=O)C[n+]1ccc(C(N)=O)cc1
inactive: dose: 12.5 mg/kg/injection, schedule: Q04DX003 (ip), vehicle: saline 98 % of control | dose: 25.0 mg/kg/injection, schedule: Q04DX003 (ip), vehicle: saline 91 % of control | dose: 50.0 mg/kg/injection, schedule: Q04DX003 (ip), vehicle: saline 91 % of control

CC1CC(C#N)C(CCC#N)CC1C (stereo not given)
inactive: dose: 100.0 mg/kg/injection, schedule: Q01DX009 (ip), vehicle: Klucel (hydroxypropylcellulose) (HPC) 104 % of control | dose: 100.0 mg/kg/injection, schedule: Q04DX003 (ip), vehicle: Klucel (hydroxypropylcellulose) (HPC) 93 % of control | dose: 200.0 mg/kg/injection, schedule: Q01DX009 (ip), vehicle: Klucel (hydroxypropylcellulose) (HPC) 106 % of control | dose: 200.0 mg/kg/injection, schedule: Q04DX003 (ip), vehicle: Klucel (hydroxypropylcellulose) (HPC) 102 % of control | dose: 400.0 mg/kg/injection, schedule: Q04DX003 (ip), vehicle: Klucel (hydroxypropylcellulose) (HPC) 100 % of control

CCCCCN(CCCCC)CC(O)C1c2ccccc2Cc2ccccc21 (stereo not given)
inactive: dose: 5.0 mg/kg/injection, schedule: Q01DX001 (ip), vehicle: saline 102 % of control | dose: 10.0 mg/kg/injection, schedule: Q01DX001 (ip), vehicle: saline 98 % of control | dose: 20.0 mg/kg/injection, schedule: Q01DX001 (ip), vehicle: saline 102 % of control | dose: 40.0 mg/kg/injection, schedule: Q01DX001 (ip), vehicle: saline 104 % of control | [9] 101 % of control

CC(=O)OC1(C(C)(C)C)C(=O)C(=[N+]=[N-])C(O)(C(C)(C)C)C(=O)C1=[N+]=[N-] (stereo not given)
inactive: dose: 100.0 mg/kg/injection, schedule: Q01DX001 (ip), vehicle: other 97 % of control | dose: 200.0 mg/kg/injection, schedule: Q01DX001 (ip), vehicle: other 97 % of control | dose: 400.0 mg/kg/injection, schedule: Q01DX001 (ip), vehicle: other 97 % of control

OCC(F)(F)C(F)(F)C(F)(F)CO
inactive: [10] 87 % of control | [11] 90 % of control | dose: 400.0 mg/kg/injection, schedule: Q01DX009 (ip), vehicle: saline 100 % of control
